Source: US20210261971A1, “COMPOSITIONS AND METHODS FOR AMELIORATING TISSUE INJURY, ENHANCING LIVER REGENERATION AND STEM CELL THERAPIES” (UNIVERSITY OF SOUTHERN CALIFORNIA, priority 2018, published 2021)
Entries after “also recorded” stand apart in the source; their conditions may differ. Where two headings read alike, the source gives them in different places.

Assays:
Assay type in all cases: in vivo, rat
[1] = system: BM sprocs (CD133+45+31+ cells); assay: Recruitment of BM sprocs after PH: number in bone marrow and circulation by immunomagnetic selection and flow cytometry; settings: for number of circulating CXCR7+ sprocs: 6 hours after PH
Protocol: Sproc isolation. BM and circulating sprocs were isolated by immunomagnetic selection for CD133 using a CD133 Cell Isolation Kit (Miltenyi Biotec, Auburn, Calif.) and separation with an autoMACS Pro (Miltenyi Biotec, Auburn, Calif.), followed by FACS sorting for CD45 and CD31 (FIG. 26, or Supporting Fig S1).
To determine the number of sprocs in the circulation and BM from Lewis rats 6 hours after partial hepatectomy, CD133+ cells were isolated by immunomagnetic selection for CD133 from peripheral blood or BM. Cell suspensions were preblocked with FcR blocking reagent and incubated for 60 minutes with antibodies to rat CD45 and CD31. CD133+45+31+ cells were quantified by flow cytometry. In some experiments cells were also stained with antibody to rat CXCR7, to identify CD133+45+31+CXCR7+ cells in the circulation.
(§1) Flow cytometry. Flow cytometry was performed using a FACSCalibur (BD Biosciences). Isotype control antibodies were used to determine appropriate gates, voltages, and compensation required for multivariate flow cytometry. Cell Quest Pro software was used for analysis

[2] = system: BM sprocs; assay: Hepatic engraftment of GFP+ BM sprocs after PH (% GFP+ LSECs, EGFP bone marrow transplant)
Description: FIG. 7D illustrates the percentage of liver sinusoidal endothelial cells (LSECs) that are bone marrow-derived, i.e. derived from BM sprocs (y-axis labeled % GFP+ LSECs). Hepatic engraftment determined as the percentage of bone marrow-derived LSECs after PH is enhanced by MMP-9 ASO or intraportal MMP inhibitor, whereas systemic inhibition of MMP by doxycycline or intraperitoneal MMP inhibitor reduces hepatic engraftment of BM sprocs. Rats were transplanted with bone marrow from a transgenic EGFP rat to allow tracking of bone marrow cells. Rats were treated with one month of ASO, 2 days of doxycycline, or infusion with the MMP inhibitor followed by partial hepatectomy. On day 2 LSECs were isolated and the percentage of GFP+ LSECs was determined by flow cytometry.
Bone marrow transplantation. BM cells were obtained from one tibia and femur from the donor. Recipients underwent 1,000 cGy total body irradiation and were injected via tail vein with 50 million BM cells. Rats received oxytetracycline (200 mg/ml) diluted 1:1,000 in the drinking water starting two days before irradiation and continuing until one week after irradiation. BM was allowed to engraft for 2 months before use. BM from Lew-Tg(CAG-EGFP)ys Lewis rats was transplanted into wild-type Lewis rats and cells were tracked by GFP expression.
LSEC isolation. LSECs were isolated by collagenase perfusion, iodixanol density gradient centrifugation, and centrifugal elutriation, as previously described (22, 23). Yields averaged 86×10^6 cells per normal rat liver (range 69-95×10^6) with average viability of 94% (range 91-96%). Purity of the cells was 99%, as determined by uptake of formaldehyde-treated serum albumin (kind gift from Bard Smedsrod, University of Tromso, Tromso, Norway), a function specific to LSECs. Cells isolated by this protocol have an appropriate range of fenestrae organized in sieve plates.
as §1

[3] = system: Lewis rats; assay: Liver histology for toxicity of MMP inhibitors given to controls
[4] = system: MMP-9; assay: Immunoblot of hepatic pro-MMP-9 and bone marrow extracellular fluid MMP-9/pro-MMP-9 after PH; settings: 6 hours after PH
Protocol: Immunoblotting. Samples from freshly isolated liver were harvested using triple lysis buffer (TLB: 50 mM Tris base, 150 mM NaCl, 3 mM sodium azide, 12 mM sodium deoxycholate, 0.1% SDS, 1% Nonidet-P40) supplemented with 2 mM phenylmethylsulphonyl fluoride (PMSF), 1 mM sodium orthovanadate and 1% protease inhibitors cocktail (Santa Cruz sc-24948). Proteins were purified by centrifugation at 15,000 g at 4° C. for 10 min and quantified using DC™ Protein Assay Kit (BioRad). The samples obtained from bone marrow extracellular fluid were preserved in PBS. For MMP-9 analysis, 100 μg of total protein was used from each sample per lane and resolved on NUPAGE™ NOVEX™ 10% Bis-Tris Protein Gels using MOPS running buffer. Proteins were transferred onto 0.45 μm nitrocellulose membranes via electroblotting using XCell II™ Blot Module (Invitrogen), for 1 h, 30V. For SDF-1 and VEGF analysis, 75 μg of total protein was used from each sample per lane and resolved on NUPAGE™ NOVEX™ 4-12% Bis-Tris Protein Gels using MES running buffer. Proteins were transferred onto 0.2 μm nitrocellulose membranes via electroblotting using Trans-blot SD Semi-Dry Transfer Cell™ (Bio-rad), for 20 min, 25V. Membranes were blocked using NAP-BLOCKER™. […] Membrane digital images were acquired with the Odyssey Infrared Imaging System (LI-COR) and analyzed using the LI-COR IMAGE STUDIO™. […]

[5] = system: Lewis rats; assay: Liver regeneration after two-thirds partial hepatectomy (PH): liver-to-body weight ratio, Ki-67 proliferation; settings: for hepatocyte proliferation (ki-67) compared to respective control: day 2 after PH, intraportal infusion
Protocol: Partial (70%) hepatectomy was performed under general anesthesia with ketamine-xylazine (80-90 mg/kg ip). For 70% partial hepatectomy, the median and left lateral lobes were removed. Buprenorphine SR (1 mg/kg) was used postoperatively for analgesia.
Liver-selective MMP-9 inhibition: Knockdown of MMP-9 was achieved by injection of one of two MMP-9 antisense oligonucleotides that were a kind gift from Ionis Pharmaceuticals (Ions No 283953 and 283973, Carlsbad, Calif.; 20 mg/kg intraperitoneally twice weekly for 4 weeks.
Systemic MMP inhibition: Doxycycline (Sigma, St. Louis), 15 mg/kg i.g., was given twice daily starting 2 days before the relevant study. Control studies were performed with the same dose of a chemically modified tetracycline, isochlorotetracycline, which is only a weak MMP inhibitor. In other experiments, MMP-2/9 was inhibited by infusing 2-[(4-biphenylsulfonyl)amino]-3-phenyl-propionic acid, 100 μg/kg/h, intraperitoneally with an Alzet mini-osmotic pump (model 2001, Durect Corporation, Cupertino Calif.).
Deparaffinized 5 μm sections of liver were treated with Bond ER-2 antigen retrieval (Leica Biosystems, Buffalo Grove, Ill.) for 20 min. After preblocking for 10 min with Rodent Block R (Cat #RBR962G, Biocare, Pacheco, Calif.), sections were incubated with antibody against Ki-67 for 60 min. Immunohistochemistry was performed by incubating sections with rabbit-on-rodent HRP-Polymer (cat #RMR622G, Biocare) for 30 min. Slides were rinsed in Bond diaminobenzidine (Leica Biosystems) for 10 min. After counterstaining with Bond hematoxylin, slides were dehydrated and covered using a coverslip with resinous mounting medium (Leica Biosystems).
Ki-67 positive cells were determined using photographs taken with a 20×-objective in 15 lobules per rat, n=3. To assess the percentage of proliferating hepatocytes and non-parenchymal cells, slides were coded and the percentage Ki-67 positive cells was determined blindly by X.W. To determine zonation of proliferating cells, each lobule was divided into three even fields and the total number of ki-67 positive cells/field was counted.

[6] = system: infused allogeneic sprocs; assay: Model of stem cell therapy: engraftment of infused GFP+ allogeneic sprocs after PH; settings: 3 months; control group 1.5%
Protocol: FIG. 8 graphically illustrates the percent LSECs as a function of engraftments of infused allogenic sprocs, and examines the concept that impairment of BM release of sprocs will favor engraftment of exogenously infused progenitor cells. […] When the percentage of cells derived from the GFP+ allogeneic progenitors was examined at 3 months, 1.5% were GFP+ in the control group versus 14% in the doxycycline group (data not shown). Method: rats were pre-treated with 2 days of doxycycline, 15 mg/kg intra-gastrically twice daily, followed by partial hepatectomy. 1 million sprocs were isolated from the livers of GFP+ rats and infused by tail vein injection. On day 2 and after 3 months LSECs were isolated and the number of GFP+ cells was determined by flow cytometry. Increased ischemia-reperfusion injury in Non-Alcoholic Fatty Liver Disease (NAFLD) due to impaired sdf-1 signaling to bone marrow sprocs can be attenuated by liver-selective MMP inhibition: Systemic MMP inhibition: Doxycycline (Sigma, St. Louis), 15 mg/kg i.g., was given twice daily starting 2 days before the relevant study. […] Purity of the cells was 99%, as determined by uptake of formaldehyde-treated serum albumin (kind gift from Bard Smedsrod, University of Tromso, Tromso, Norway), a function specific to LSECs. […]

O=C(O)[C@@H](Cc1ccccc1)NS(=O)(=O)c1ccc(-c2ccccc2)cc1 [MMP-2/9 inhibitor, (2R)-2-[(4-Biphenylylsulfonyl)amino]-3-phenylpropionic acid]
number of circulating CXCR7+ sprocs ([1]; intraperitoneal): reduced | number of circulating CXCR7+ sprocs ([1]; intraportal infusion): increased | reduction of CXCR7+ sprocs mobilized to the circulation ([1]; after PH, intraperitoneal): 86% | increase of CXCR7+ sprocs in the circulation ([1]; after PH, intraportal infusion): 110% | hepatic engraftment of BM sprocs (% GFP+ LSECs) ([2]; intraperitoneal): reduced | reduction of hepatic engraftment of BM sprocs compared to control/PH ([2]; intraperitoneal): 36% | hepatic engraftment of BM sprocs (% GFP+ LSECs) ([2]; intraperitoneal, listed as MMP inhibitor): reduces | hepatic engraftment of BM sprocs (% GFP+ LSECs) ([2]; intraportal): enhanced | increase of hepatic engraftment of GFP+ BM sprocs compared to control/PH ([2]; intraportal): 45% | hepatotoxicity (histology) ([3]; intraportal): no evidence of toxicity; also recorded: neither doxycycline nor intraportal MMP-2/9 inhibitor given to controls was hepatotoxic | increase of hepatic MMP-9 protein expression after PH ([4]; intraperitoneal): abrogated the increase in hepatic MMP-9 expression | increase of hepatic MMP-9 protein expression after PH ([4]; intraportal): abrogated the increase in hepatic MMP-9 expression | hepatocyte proliferation (ki-67) compared to respective control [5]: enhances | hepatocyte proliferation (ki-67) compared to respective control ([5]; listed as MMPi): enhanced

C[C@H]1c2cccc(O)c2C(=O)C2=C(O)[C@]3(O)C(=O)C(C(N)=O)=C(O)[C@@H](N(C)C)[C@@H]3[C@@H](O)[C@@H]21 [doxycycline, Doxycycline]
reduction of CXCR7+ sprocs mobilized to the circulation ([1]; after PH, systemic): 90% | reduction of mobilization of BM sprocs to the circulation ([1]; after PH, systemic): 72% | percentage of GFP+ LSECs derived from infused allogeneic progenitors [6]: 14% | reduction of hepatic engraftment of BM sprocs compared to control/PH ([2]; systemic): 58% | hepatotoxicity (histology) [3]: neither doxycycline nor intraportal MMP-2/9 inhibitor given to controls was hepatotoxic | hepatotoxicity (histology) ([3]; listed as coxycycline): no evidence of toxicity | reduction of liver-to-body weight ratio compared to its solvent control ([5]; day 5 after two-thirds PH, doxycycline for 2 days before PH (systemic)): 29%

isochlorotetracycline
hepatic engraftment of BM sprocs (% GFP+ LSECs) [2]: no effect
